System: 233499-124-R-J3-PDC spheroids with HUVEC/MSC, viability
Assay: Anticancer human tumor 233499-124-R-J3-PDC patient-derived colon adenocarcinoma cell line growth inhibition [PI3K]
Details: for IC50: curve of first compound; for viability, T/C: stronger effect = lower value; active means viability on the fitted dose curve at most 10% of control; inactive means the rest
Method in brief: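 Viability of mixed-cell spheroids was determined after exposure to pairwise combinations, one partner being inavolisib, alpelisib, duvelisib or copanlisib. Highest tested concentration matched clinical Cmax where known and 10 microM where not, descending in half-log steps.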

[1] = second compound 0.00316 µM, first compound 0.0316 µM
[2] = second compound 0.00316 µM, first compound 0.1 µM
[3] = second compound 0.00316 µM, first compound 0.316 µM
[4] = second compound 0.00316 µM, first compound 1 µM
[5] = second compound 0.00316 µM, first compound 3.16 µM
[6] = second compound 0.00316 µM, first compound 10 µM
[7] = second compound 0.01 µM, first compound 0.0316 µM
[8] = second compound 0.01 µM, first compound 0.1 µM
[9] = second compound 0.01 µM, first compound 0.316 µM
[10] = second compound 0.01 µM, first compound 1 µM
[11] = second compound 0.01 µM, first compound 3.16 µM
[12] = second compound 0.01 µM, first compound 10 µM
[13] = second compound 0.0316 µM, first compound 0.0316 µM
[14] = second compound 0.0316 µM, first compound 0.1 µM
[15] = second compound 0.0316 µM, first compound 0.316 µM
[16] = second compound 0.0316 µM, first compound 1 µM
[17] = second compound 0.0316 µM, first compound 3.16 µM
[18] = second compound 0.0316 µM, first compound 10 µM
[19] = second compound 0.1 µM, first compound 0.0316 µM
[20] = second compound 0.1 µM, first compound 0.1 µM
[21] = second compound 0.1 µM, first compound 0.316 µM
[22] = second compound 0.1 µM, first compound 1 µM
[23] = second compound 0.1 µM, first compound 3.16 µM
[24] = second compound 0.1 µM, first compound 10 µM
[25] = second compound 0.316 µM, first compound 0.0316 µM
[26] = second compound 0.316 µM, first compound 0.1 µM
[27] = second compound 0.316 µM, first compound 0.316 µM
[28] = second compound 0.316 µM, first compound 1 µM
[29] = second compound 0.316 µM, first compound 3.16 µM
[30] = second compound 0.316 µM, first compound 10 µM
[31] = second compound 1 µM, first compound 0.0316 µM
[32] = second compound 1 µM, first compound 0.1 µM
[33] = second compound 1 µM, first compound 0.316 µM
[34] = second compound 1 µM, first compound 1 µM
[35] = second compound 1 µM, first compound 3.16 µM
[36] = second compound 1 µM, first compound 10 µM
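Further: spheroids exposed to agents for seven days before readout.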
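Wherever viability, T/C is given: percent viability relative to DMSO vehicle control taken as 100%.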

Cn1cnc2c(F)c(Nc3ccc(Br)cc3Cl)c(C(=O)NOCCO)cc21 + COc1c(OCCCN2CCOCC2)ccc2c3n(c(=NC(=O)c4cnc(N)nc4)nc12)CCN3
< 9.49 nM: IC50 (second compound 0.316 µM) | IC50 (second compound 1 µM)
active: viability, T/C (second compound 0.316 µM, first compound 0.3 µM) 10.2% | viability, T/C (second compound 0.316 µM, first compound 0.949 µM) 5.14% | viability, T/C (second compound 0.316 µM, first compound 3 µM) 6.9% | viability, T/C (second compound 1 µM, first compound 0.00949 µM) 2.93% | viability, T/C (second compound 1 µM, first compound 0.03 µM) 7.86% | viability, T/C (second compound 1 µM, first compound 0.0949 µM) 4.9% | viability, T/C (second compound 1 µM, first compound 0.3 µM) 0.96% | viability, T/C (second compound 1 µM, first compound 0.949 µM) 1.18% | viability, T/C (second compound 1 µM, first compound 3 µM) 1.01%
378 nM: IC50 (second compound 0.00316 µM)
54 nM: IC50 (second compound 0.1 µM)
131 nM: IC50 (second compound 0.0316 µM)
760 nM: IC50 (second compound 0.01 µM)
inactive: viability, T/C (second compound 0.00316 µM, first compound 0.00949 µM) 55.7% | viability, T/C (second compound 0.00316 µM, first compound 0.03 µM) 73.5% | viability, T/C (second compound 0.00316 µM, first compound 0.0949 µM) 76.5% | viability, T/C (second compound 0.00316 µM, first compound 0.3 µM) 54.9% | viability, T/C (second compound 0.00316 µM, first compound 0.949 µM) 31.2% | viability, T/C (second compound 0.00316 µM, first compound 3 µM) 29.5% | viability, T/C (second compound 0.01 µM, first compound 0.00949 µM) 75.2% | viability, T/C (second compound 0.01 µM, first compound 0.03 µM) 80.8% | viability, T/C (second compound 0.01 µM, first compound 0.0949 µM) 75.5% | viability, T/C (second compound 0.01 µM, first compound 0.3 µM) 56% | viability, T/C (second compound 0.01 µM, first compound 0.949 µM) 50.3% | viability, T/C (second compound 0.01 µM, first compound 3 µM) 24.6% | viability, T/C (second compound 0.0316 µM, first compound 0.00949 µM) 68.3% | viability, T/C (second compound 0.0316 µM, first compound 0.03 µM) 78.9% | viability, T/C (second compound 0.0316 µM, first compound 0.0949 µM) 54.1% | viability, T/C (second compound 0.0316 µM, first compound 0.3 µM) 34.2% | viability, T/C (second compound 0.0316 µM, first compound 0.949 µM) 30.4% | viability, T/C (second compound 0.0316 µM, first compound 3 µM) 20.1% | viability, T/C (second compound 0.1 µM, first compound 0.00949 µM) 71.5% | viability, T/C (second compound 0.1 µM, first compound 0.03 µM) 67.5% | viability, T/C (second compound 0.1 µM, first compound 0.0949 µM) 33.1% | viability, T/C (second compound 0.1 µM, first compound 0.3 µM) 28.2% | viability, T/C (second compound 0.1 µM, first compound 0.949 µM) 19.1% | viability, T/C (second compound 0.1 µM, first compound 3 µM) 17.9% | viability, T/C (second compound 0.316 µM, first compound 0.00949 µM) 41.3% | viability, T/C (second compound 0.316 µM, first compound 0.03 µM) 34.2% | viability, T/C (second compound 0.316 µM, first compound 0.0949 µM) 13.1%

CC(C)NCC(C(=O)N1CCN(c2ncnc3c2C(C)CC3O)CC1)c1ccc(Cl)cc1 (stereo unspecified) + COc1c(OCCCN2CCOCC2)ccc2c3n(c(=NC(=O)c4cnc(N)nc4)nc12)CCN3
> 10000 nM: IC50 (second compound 0.00316 µM) | IC50 (second compound 0.01 µM) | IC50 (second compound 0.0316 µM) | IC50 (second compound 0.1 µM)
< 31.6 nM: IC50 (second compound 0.316 µM) | IC50 (second compound 1 µM)
inactive: viability, T/C [1] 92.1% | viability, T/C [2] 88.9% | viability, T/C [3] 74% | viability, T/C [4] 81.8% | viability, T/C [5] 98.8% | viability, T/C [6] 81.5% | viability, T/C [7] 103% | viability, T/C [8] 96.6% | viability, T/C [9] 82.7% | viability, T/C [10] 97.1% | viability, T/C [11] 90% | viability, T/C [12] 80.2% | viability, T/C [13] 81% | viability, T/C [14] 98.1% | viability, T/C [15] 76.6% | viability, T/C [16] 84.4% | viability, T/C [17] 84.3% | viability, T/C [18] 84.1% | viability, T/C [19] 68.4% | viability, T/C [20] 76.4% | viability, T/C [21] 61.4% | viability, T/C [22] 52.2% | viability, T/C [23] 49.7% | viability, T/C [24] 65.8% | viability, T/C [25] 32.2% | viability, T/C [26] 32% | viability, T/C [27] 31.9% | viability, T/C [28] 17.1% | viability, T/C [29] 35.4% | viability, T/C [30] 20.6% | viability, T/C [31] 5.67% | viability, T/C [32] 11.1% | viability, T/C [33] 6.6% | viability, T/C [34] 11.4% | viability, T/C [35] 16.2% | viability, T/C [36] 10.2%

Cn1ncc(Cl)c1-c1cc(C(=O)NC(CN)Cc2cccc(F)c2)sc1Cl (stereo unspecified) + CC(Nc1ccc2c(c1)OCCn1cc(N3C(=O)OCC3C(F)F)nc1-2)C(N)=O
inactive: viability, T/C [1] 73.9% | viability, T/C [2] 93% | viability, T/C [3] 93.9% | viability, T/C [4] 99.9% | viability, T/C [5] 58.4% | viability, T/C [6] 30.5% | viability, T/C [7] 86.1% | viability, T/C [8] 81.8% | viability, T/C [9] 81.5% | viability, T/C [10] 80.8% | viability, T/C [11] 53.3% | viability, T/C [12] 32.1% | viability, T/C [13] 111% | viability, T/C [14] 82.9% | viability, T/C [15] 80.3% | viability, T/C [16] 77.8% | viability, T/C [17] 43.8% | viability, T/C [18] 21.4% | viability, T/C [19] 97.4% | viability, T/C [20] 94.3% | viability, T/C [21] 65.6% | viability, T/C [22] 67% | viability, T/C [23] 62.3% | viability, T/C [24] 16.6% | viability, T/C [25] 79% | viability, T/C [26] 94.3% | viability, T/C [27] 61.5% | viability, T/C [28] 55.2% | viability, T/C [29] 46.9% | viability, T/C [30] 19.8% | viability, T/C [31] 42.6% | viability, T/C [32] 61.8% | viability, T/C [33] 67.2% | viability, T/C [34] 56% | viability, T/C [35] 42.9% | viability, T/C [36] 14.3%
3190 nM: IC50 (second compound 0.1 µM)
1800 nM: IC50 (second compound 0.316 µM)
3790 nM: IC50 (second compound 0.01 µM)
1730 nM: IC50 (second compound 1 µM)
4460 nM: IC50 (second compound 0.00316 µM)
2730 nM: IC50 (second compound 0.0316 µM)

— PubChem BioAssay AID1963984 (Molecular Pharmacology Branch, DTP, NCI, 2024)
